The test system of this assay is anti-testosterone serum from rabbit No. X-181. Briefly: Cross-reactivity of structurally similar steroids with the anti-testosterone serum. It counts as binding. Conditions: antiserum of rabbit X-181; testosterone = 100.

Description: Also, the cross-reactivity of pertinent and structurally similar steroids was determined to be as follows:

As to `C[C@]12CC[C@H]3[C@@H](CC=C4C[C@@H](O)CC[C@@]43C)[C@@H]1CC[C@@H]2O` [5-Androstene-3β,17β-diol], the “% CROSS-REACTIVITY” value was 0.51%.
Turning to `C[C@]12CC[C@@H](O)C[C@@H]1CC[C@@H]1[C@@H]2CC[C@]2(C)[C@@H](O)CC[C@@H]12` [5α-Androstane-3α, 17β-diol], the “% CROSS-REACTIVITY” value is listed as 0.00%.
Consider `C[C@]12CC[C@H](O)C[C@@H]1CC[C@@H]1[C@@H]2CC[C@]2(C)[C@@H](O)CC[C@@H]12` [5α-Androstane-3β,17β-diol], for which the “% CROSS-REACTIVITY” value is listed as 2.19%.
As to `C[C@]12CCC(=O)C[C@@H]1CC[C@@H]1[C@@H]2CC[C@]2(C)[C@@H](O)CC[C@@H]12` [5α-Dihydrotestosterone], the “% CROSS-REACTIVITY” value is recorded as 6.65%.
On to `C[C@]12CCC(=O)C[C@H]1CC[C@@H]1[C@@H]2CC[C@]2(C)C(=O)CC[C@@H]12` [5β-Androstane-3,17-dione], for which the “% CROSS-REACTIVITY” value amounted to 0.00%.
`C[C@]12CCC(=O)C[C@H]1CC[C@@H]1[C@@H]2CC[C@]2(C)[C@@H](O)CC[C@@H]12` [5β-Dihydrotestosterone]: the “% CROSS-REACTIVITY” value is on record as 0.63%.
Regarding `C[C@]12CC[C@H]3[C@@H](C[C@H](O)C4=CC(=O)CC[C@@]43C)[C@@H]1CC[C@@H]2O` [6α-Hydroxytestosterone], the “% CROSS-REACTIVITY” value amounted to 0.75%.
Regarding `C[C@]12CCC(=O)C=C1CC[C@@H]1[C@@H]2[C@@H](O)C[C@]2(C)C(=O)CC[C@@H]12` [11β-Hydroxyandrostenodione], the “% CROSS-REACTIVITY” value is 0.00%.
`C[C@]12C[C@H](O)[C@H]3[C@@H](CCC4=CC(=O)CC[C@@]43C)[C@@H]1CC[C@@H]2O` [11β-Hydroxytestosterone]: the “% CROSS-REACTIVITY” value is on record as 0.00%.
In the case of `C[C@]12CC(=O)[C@H]3[C@@H](CCC4=CC(=O)CC[C@@]43C)[C@@H]1CC[C@@H]2O` [11β-Oxotestosterone] it was 1.80%.
Turning to `C[C@]12CCC(=O)C=C1CC[C@@H]1[C@@H]2CC[C@]2(C)C(=O)CC[C@@H]12` [Androstenedione], the “% CROSS-REACTIVITY” value amounted to 0.90%.
With `C[C@]12CC[C@@H](O)C[C@@H]1CC[C@@H]1[C@@H]2CC[C@]2(C)C(=O)CC[C@@H]12` [Androsterone], the “% CROSS-REACTIVITY” value worked out at 0.00%.
`C[C@]12C[C@H](O)[C@H]3[C@@H](CCC4=CC(=O)CC[C@@]43C)[C@@H]1CC[C@@H]2C(=O)CO` [Corticosterone]: the “% CROSS-REACTIVITY” value turned out to be 0.00%.
Turning to `C[C@]12CC[C@H](O)CC1=CC[C@@H]1[C@@H]2CC[C@]2(C)C(=O)CC[C@@H]12` [Dehydroepiandrosterone], the “% CROSS-REACTIVITY” value was 0.00%.
For the compound `C[C@]12CC[C@H]3[C@@H](CCC4=CC(=O)CC[C@@]43C)[C@@H]1CC[C@@H]2C(=O)CO` [Deoxycorticosterone], the “% CROSS-REACTIVITY” value turned out to be 0.00%.
For `C[C@]12CC[C@H](O)C[C@@H]1CC[C@@H]1[C@@H]2CC[C@]2(C)C(=O)CC[C@@H]12` [Epiandrosterone], the “% CROSS-REACTIVITY” value is reported as 0.19%.
`C[C@]12CC[C@@H]3c4ccc(O)cc4CC[C@H]3[C@@H]1CC[C@@H]2O` [Estradiol]: the “% CROSS-REACTIVITY” value stood at 0.43%.
As to `C[C@]12CC[C@@H]3c4ccc(O)cc4CC[C@H]3[C@@H]1C[C@@H](O)[C@@H]2O` [Estriol], the “% CROSS-REACTIVITY” value is on record as 0.00%.
In the case of `C[C@]12CC[C@@H]3c4ccc(O)cc4CC[C@H]3[C@@H]1CCC2=O` [Estrone] it was 0.00%; in that of `CC(=O)[C@H]1CC[C@H]2[C@@H]3CCC4=CC(=O)CC[C@]4(C)[C@H]3CC[C@]12C` [Progesterone], 0.00%.
For the compound `C[C@]12CC[C@H]3[C@@H](CCC4=CC(=O)CC[C@@]43C)[C@@H]1CC[C@@H]2O` [Testosterone], the “% CROSS-REACTIVITY” value is reported as 100.00%.
